Experiments:
BCRP = target: T1, BCRP (Homo sapiens, UniProt Q9UNQ0); assay: Substrate potential for BCRP, bidirectional permeability in BCRP-MDCK; format: in vitro ADME; conditions: human; BCRP-MDCK; read-out: Efflux ratio of control compound
T1 construct: host or cells: MDCK (BCRP-MDCK)
T1 sequence (Q9UNQ0 1-655): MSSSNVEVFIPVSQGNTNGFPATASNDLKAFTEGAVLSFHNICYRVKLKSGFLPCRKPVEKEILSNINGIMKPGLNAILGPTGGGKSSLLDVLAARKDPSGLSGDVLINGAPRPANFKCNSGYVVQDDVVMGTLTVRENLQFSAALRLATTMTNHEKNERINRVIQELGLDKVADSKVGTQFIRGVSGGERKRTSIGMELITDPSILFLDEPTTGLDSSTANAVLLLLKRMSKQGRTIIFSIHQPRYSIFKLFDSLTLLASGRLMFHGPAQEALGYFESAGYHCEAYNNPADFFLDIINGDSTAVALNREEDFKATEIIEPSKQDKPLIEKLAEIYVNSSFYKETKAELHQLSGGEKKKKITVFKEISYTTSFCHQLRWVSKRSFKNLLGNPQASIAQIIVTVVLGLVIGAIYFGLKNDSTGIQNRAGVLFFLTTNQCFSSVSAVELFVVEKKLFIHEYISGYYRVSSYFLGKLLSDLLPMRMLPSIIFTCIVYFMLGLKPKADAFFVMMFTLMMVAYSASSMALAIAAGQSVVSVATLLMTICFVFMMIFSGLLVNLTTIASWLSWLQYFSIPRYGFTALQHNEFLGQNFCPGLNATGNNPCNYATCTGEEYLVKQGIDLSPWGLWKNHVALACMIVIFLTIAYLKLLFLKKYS

CYP1A2 = assay: CYP mRNA induction in plated human hepatocytes (qPCR); conditions: CYP1A2, flumazenil 25 µM
Method: (§1) The induction potential of EBO and M3 on CYP1A2, CYP2B6, and 3A4 was evaluated by incubating the test articles with plated human hepatocytes from 3 individual donors (GKJ, ZEY, WKF) in triplicate according to WuXi AppTec (Cranbury, NJ, USA) SOP.
(§2) At the end of incubation, the RNA of human hepatocytes was isolated and the mRNA expression levels of CYP 1A2, 2B6, and 3A4 were evaluated by using real-time polymerase chain reaction (qPCR) after being reverse-transcribed (RT) to cDNA following manufacturer’s instruction (thermos Fisher Scientific (Waltham, MA, USA). On the last dosing day with EBO or M3, incubation samples were extracted in triplicate by the addition of ice-cold quench solutions at 0, 0.5, 1, 2, 4, 6, and 24 h after dosing and the extracted samples were analyzed using LC-MS/MS to determine the EBO or M3 concentration in each sample.

CYP2B6 = assay: as above; conditions: CYP2B6; for mRNA Induction Fold in Controls NC: flumazenil 25 µM; for mRNA Induction Fold in Controls PC: phenobarbital 750 µM
Method: as §1, §2

CYP3A4 = assay: as above; conditions: CYP3A4, flumazenil 25 µM
Method: as §1, §2

in vitro = conditions: human, Caco-2
Method: ^14C-EBO permeability in Caco-2 Cells (MDR1/Protein Glycoprotein or P-gp) was determined using methodologies described previously. The apparent permeability of ^14C-EBO was determined in both the apical to basolateral and the basolateral to apical directions, in triplicate, at final concentrations of 1, 10, and 100 μM. Cell monolayers were incubated with ^14C-EBO at 37 °C for 1, 2, 3, and 4 h. The transepithelial electrical resistance (TEER) values of the monolayers prior to and following each experiment were measured to confirm the integrity of the Caco-2 cell monolayers. The apparent permeability of ^14C-EBO (at a final concentration of 10 μM) was determined in both the apical to basolateral and basolateral to apical directions under the same conditions as previously described in the presence of P-gp inhibitors cyclosporine A (10 μM) and verapamil (100 μM) in the donor compartment.

[1] = donor one, control of EBO experiment
[2] = donor one, control of M3 experiment
[3] = donor three, control of EBO experiment
[4] = donor three, control of M3 experiment
[5] = donor two, control of EBO experiment
[6] = donor two, control of M3 experiment

SMILES: Nc1nc(Cl)nc2c1ncn2[C@H]1C[C@H](O)[C@@H](CO)O1 [cladribine, reference compound]
- efflux ratio (BCRP): 288

SMILES: CCOC(=O)c1ncn2c1CN(C)C(=O)c1cc(F)ccc1-2 [flumazenil]
- mRNA Induction Fold in Controls NC (CYP1A2; [1]): 0.71 Fold
- mRNA Induction Fold in Controls NC (CYP1A2; [2]): 0.94 Fold
- mRNA Induction Fold in Controls NC (CYP1A2; [3]): 0.75 Fold
- mRNA Induction Fold in Controls NC (CYP1A2; [4]): 0.74 Fold
- mRNA Induction Fold in Controls NC (CYP1A2; [5]): 0.94 Fold
- mRNA Induction Fold in Controls NC (CYP1A2; [6]): 0.82 Fold
- mRNA Induction Fold in Controls NC (CYP2B6; [1]): 0.84 Fold
- mRNA Induction Fold in Controls NC (CYP2B6; [2]): 0.91 Fold
- mRNA Induction Fold in Controls NC (CYP2B6; [3]): 1.00 Fold
- mRNA Induction Fold in Controls NC (CYP2B6; [4]): 0.87 Fold
- mRNA Induction Fold in Controls NC (CYP2B6; [5]): 1.09 Fold
- mRNA Induction Fold in Controls NC (CYP2B6; [6]): 0.87 Fold
- mRNA Induction Fold in Controls NC (CYP3A4; [1]): 0.89 Fold
- mRNA Induction Fold in Controls NC (CYP3A4; [2]): 1.06 Fold
- mRNA Induction Fold in Controls NC (CYP3A4; [3]): 0.98 Fold
- mRNA Induction Fold in Controls NC (CYP3A4; [4]): 0.87 Fold
- mRNA Induction Fold in Controls NC (CYP3A4; [5]): 0.96 Fold
- mRNA Induction Fold in Controls NC (CYP3A4; [6]): 0.66 Fold

SMILES: OC[C@@H](O)[C@@H](O)[C@H](O)[C@H](O)CO [mannitol, reference compound]
- Papp (in vitro): 0.19 to 0.69 ×10⁻⁶ cm/s

SMILES: CCC1(c2ccccc2)C(=O)NC(=O)NC1=O [phenobarbital]
- mRNA Induction Fold in Controls PC (CYP2B6; [1]): 7.45 Fold
- mRNA Induction Fold in Controls PC (CYP2B6; [2]): 9.17 Fold
- mRNA Induction Fold in Controls PC (CYP2B6; [3]): 6.64 Fold
- mRNA Induction Fold in Controls PC (CYP2B6; [4]): 6.86 Fold
- mRNA Induction Fold in Controls PC (CYP2B6; [5]): 6.88 Fold
- mRNA Induction Fold in Controls PC (CYP2B6; [6]): 6.29 Fold
